From publication PMC4373589 (Journal of medicinal chemistry, 2013)

What was measured:
mu opioid receptor (MOR) [1] = biological target: T1, mu opioid receptor (MOR) (Mus musculus, UniProt P42866); test: MOR competitive radioligand binding; design: species or system mice
[2] = biological target: T2, kappa opioid receptor (KOR) (Mus musculus, UniProt P33534); test: biochemical; format: binding, mice
[3] = biological target: T3, delta opioid receptor (DOR) (Mus musculus, UniProt P32300); test: DOR competitive radioligand binding; design: species or system mice
T3 sequence (P32300 whole entry): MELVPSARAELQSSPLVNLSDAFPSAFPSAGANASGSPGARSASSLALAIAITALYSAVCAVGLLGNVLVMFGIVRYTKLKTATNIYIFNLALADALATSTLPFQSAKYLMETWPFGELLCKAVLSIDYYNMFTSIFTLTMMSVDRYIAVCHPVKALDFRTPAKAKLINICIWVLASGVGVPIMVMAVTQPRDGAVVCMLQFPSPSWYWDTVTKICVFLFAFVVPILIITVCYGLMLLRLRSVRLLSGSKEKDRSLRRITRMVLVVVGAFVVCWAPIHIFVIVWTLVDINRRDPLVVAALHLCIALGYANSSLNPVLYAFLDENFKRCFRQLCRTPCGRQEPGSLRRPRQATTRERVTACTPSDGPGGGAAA

morphine dependent mice = test: Opioid withdrawal assay in morphine-pelleted mice; format: in vivo; conditions: for Escape jumps, effect of dose / Wet dog shakes, effect of dose: increasing dose up to 30 mg/kg s.c.; for Precipitated withdrawal symptoms, overall comparison: s.c.; for Wet dog shakes at 30 mg/kg: 30 mg/kg s.c., compared with 1 mg/kg naloxone and naltrexone
[4] = biological target: T2, kappa opioid receptor (KOR); test: KOR [35S]-GTPγS binding assay
[5] = biological target: T3, delta opioid receptor (DOR); test: DOR [35S]-GTPγS binding assay
antinociception = test: Warm-water tail flick assay, acute agonist effect; conditions: up to 30 mg/kg dose; s.c.
mu opioid receptor (MOR) [6] = biological target: T1, mu opioid receptor (MOR); test: MOR [35S]-GTPγS functional assay; format: biochemical, mice
KOR = conditions: cited from earlier work
[7] = 1 mg/kg s.c., morphine-pelleted mice, counted over 20 minutes

T2 sequence (P33534 whole entry): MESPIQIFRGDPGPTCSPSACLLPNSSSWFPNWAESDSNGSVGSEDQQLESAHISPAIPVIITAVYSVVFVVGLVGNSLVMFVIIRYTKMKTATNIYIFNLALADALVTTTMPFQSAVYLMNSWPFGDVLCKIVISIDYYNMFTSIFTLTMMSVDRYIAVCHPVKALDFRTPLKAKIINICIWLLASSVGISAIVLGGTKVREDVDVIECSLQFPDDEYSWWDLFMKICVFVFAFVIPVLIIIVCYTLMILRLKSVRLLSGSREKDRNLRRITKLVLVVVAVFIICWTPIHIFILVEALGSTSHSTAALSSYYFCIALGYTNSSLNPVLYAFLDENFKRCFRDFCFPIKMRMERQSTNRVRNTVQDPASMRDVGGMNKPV
T1 sequence (P42866 whole entry): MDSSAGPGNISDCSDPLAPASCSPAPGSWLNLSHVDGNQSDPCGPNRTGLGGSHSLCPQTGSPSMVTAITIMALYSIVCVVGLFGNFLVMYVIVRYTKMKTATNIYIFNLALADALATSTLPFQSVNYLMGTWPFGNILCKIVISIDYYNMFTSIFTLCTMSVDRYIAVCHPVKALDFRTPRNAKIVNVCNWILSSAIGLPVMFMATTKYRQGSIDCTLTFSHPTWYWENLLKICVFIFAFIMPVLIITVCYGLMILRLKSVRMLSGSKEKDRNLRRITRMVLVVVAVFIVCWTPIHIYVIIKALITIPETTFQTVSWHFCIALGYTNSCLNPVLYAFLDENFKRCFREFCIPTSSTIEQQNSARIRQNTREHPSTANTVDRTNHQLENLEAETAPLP

Row | SMILES | Ki (mu opioid receptor (MOR) [1]) | Ki [2] | Ki [3] | further results
1 | O=C(O[C@@]12CCC(=O)[C@@H]3Oc4c(O)ccc5c4[C@@]31CCN(CC1CC1)[C@@H]2C5)c1ccccn1 [Compound 2, 17-cyclopropylmethyl-4,5α-epoxy-3-hydroxy-14β-O-(pyridyl-2’-carboxy)morphinan-6-one] | 0.14 ± 0.03 nM | 25.5 ± 6.5 nM | 117 ± 18 nM | Selectivity to the MOR over the KOR and the DOR (mu opioid receptor (MOR) [1]): above 30 fold
2 | O=C(O[C@@]12CCC(=O)[C@@H]3Oc4c(O)ccc5c4[C@@]31CCN(CC1CC1)[C@@H]2C5)c1cccnc1 [Compound 3, 17-cyclopropylmethyl-4,5α-epoxy-3-hydroxy-14β-O-(pyridyl-3’- carboxy)morphinan-6-one] | 1.59 ± 0.61 nM | 47.8 ± 8.5 nM | 170 ± 12.6 nM | Selectivity to the MOR over the KOR and the DOR (mu opioid receptor (MOR) [1]): above 30 fold
3 | O=C(O[C@@]12CCC(=O)[C@@H]3Oc4c(O)ccc5c4[C@@]31CCN(CC1CC1)[C@@H]2C5)c1ccncc1 [Compound 4, 17-cyclopropylmethyl-4,5α-epoxy-3-hydroxy-14β-O-(pyridyl-4’-carboxy)morphinan-6-one] | 5.58 ± 1.34 nM | 49.2 ± 20.4 nM | 405 ± 235 nM | –
4 | O=C(O[C@@]12CCC(=O)[C@@H]3Oc4c(O)ccc5c4[C@@]31CCN(CC1CC1)[C@@H]2C5)c1ccccc1 [Compound 5, 17-cyclopropylmethyl-4,5α-epoxy-3-hydroxy-14β-O-(benzoyloxy)morphinan-6-one] | 123 ± 38.2 nM | 586 ± 32.4 nM | > 10000 nM | Selectivity δ/μ (mu opioid receptor (MOR) [1]; Table 1, Ki ratio): >81; Selectivity δ/κ ([2]; Table 1, Ki ratio): >17
5 | O=C(O[C@@]12CCC(=O)[C@@H]3Oc4c(O)ccc5c4[C@@]31CCN(CC1CC1)[C@@H]2C5)c1cc2ccccc2cn1 [Compound 6, 17-cyclopropylmethyl-4,5α-epoxy-3-hydroxy-14β-O-(isoquinolyl-3’-carboxy)morphinan-6-one] | 68.4 ± 6 nM | > 10000 nM | > 10000 nM | Selectivity to the MOR over the KOR and the DOR (mu opioid receptor (MOR) [1]): above 30 fold; Selectivity δ/μ (mu opioid receptor (MOR) [1]; Table 1, Ki ratio): >146; Selectivity κ/μ (mu opioid receptor (MOR) [1]; Table 1, Ki ratio): >146
6 | O=C(O[C@@]12CCC(=O)[C@@H]3Oc4c(O)ccc5c4[C@@]31CCN(CC1CC1)[C@@H]2C5)c1ccc2ccccc2n1 [Compound 7, 17-cyclopropylmethyl-4,5α-epoxy-3-hydroxy-14β-O-(quinolyl-2’-carboxy)morphinan-6-one] | 1.44 ± 0.32 nM | 67.2 ± 36.7 nM | 22.8 ± 19.5 nM | –
7 | O=C(O[C@@]12CCC(=O)[C@@H]3Oc4c(O)ccc5c4[C@@]31CCN(CC1CC1)[C@@H]2C5)c1cnc2ccccc2c1 [Compound 8, 17-cyclopropylmethyl-4,5α-epoxy-3-hydroxy-14β-O-(quinolyl-3’-carboxy)morphinan-6-one] | 2.69 ± 0.72 nM | 148 ± 55.5 nM | 818 ± 507 nM | Selectivity to the MOR over the KOR and the DOR (mu opioid receptor (MOR) [1]): above 30 fold
8 | O=C(O[C@@]12CCC(=O)[C@@H]3Oc4c(O)ccc5c4[C@@]31CCN(CC1CC1)[C@@H]2C5)c1ccc2ccccc2c1 [Compound 9, 17-cyclopropylmethyl-4,5α-epoxy-3-hydroxy-14β-O-(2-naphthoyloxy)morphinan-6-one] | 225 ± 46.6 nM | 46.6 ± 13.5 nM | 907 ± 193 nM | –
9 | O=C(N[C@@]12CCC(=O)[C@@H]3Oc4c(O)ccc5c4[C@@]31CCN(CC1CC1)[C@@H]2C5)c1ccccn1 [Compound 10, 17-cyclopropylmethyl-4,5α-epoxy-3-hydroxy-14β-N-[(2’-pyridyl)carboxamido]morphinan-6-one] | 1.51 ± 0.34 nM | 0.36 ± 0.01 nM | 94.5 ± 6.5 nM | Wet dog shakes at 3 mg/kg (morphine dependent mice; 3 mg/kg s.c.): minimal number of wet dog shakes; Wet dog shakes at 10 mg/kg (morphine dependent mice; 10 mg/kg s.c., same level at 30 mg/kg): dramatic increase; Wet dog shakes at high doses (morphine dependent mice; 10 and 30 mg/kg s.c., compared with 1 mg/kg naloxone): still lower than that of 1 mg/kg naloxone; Escape jumps, effect of dose (morphine dependent mice): clear decrease of escape jumps as its dose increased (not significantly though); Precipitated withdrawal symptoms, overall comparison (morphine dependent mice; morphine-pelleted mice): less severe withdrawal symptoms than naloxone at high doses; EC50 [4]: 1.74 ± 0.5 nM; EC50 [5]: 19.7 ± 7.4 nM; Agonist effect in tail flick assay (antinociception): None of the compounds produced any significant agonist effect
10 | O=C(N[C@@]12CCC(=O)[C@@H]3Oc4c(O)ccc5c4[C@@]31CCN(CC1CC1)[C@@H]2C5)c1cccnc1 [Compound 11, 17-cyclopropylmethyl-4,5α-epoxy-3-hydroxy-14β-N-[(3’-pyridyl)carboxamido]morphinan-6-one] | 0.75 ± 0.28 nM | 0.16 ± 0.01 nM | 39.9 ± 0.5 nM | Wet dog shakes at 30 mg/kg (morphine dependent mice): resembled the effect of 1 mg/kg naloxone and naltrexone; Escape jumps, effect of dose (morphine dependent mice): dose-response increasing effect; Wet dog shakes, effect of dose (morphine dependent mice): dose-response increasing effect; Precipitated withdrawal symptoms, overall comparison (morphine dependent mice; morphine-pelleted mice): behaved similarly to naltrexone; EC50 [4]: 0.56 ± 0.06 nM; EC50 [5]: 3.2 ± 2 nM; Agonist effect in tail flick assay (antinociception): None of the compounds produced any significant agonist effect
11 | O=C(N[C@@]12CCC(=O)[C@@H]3Oc4c(O)ccc5c4[C@@]31CCN(CC1CC1)[C@@H]2C5)c1ccncc1 [Compound 12, 17-cyclopropylmethyl-4,5α-epoxy-3-hydroxy-14β-N-[(4’-pyridyl)carboxamido]morphinan-6-one] | 0.82 ± 0.33 nM | 0.33 ± 0.01 nM | 10.9 ± 1.3 nM | –
12 | O=C(N[C@@]12CCC(=O)[C@@H]3Oc4c(O)ccc5c4[C@@]31CCN(CC1CC1)[C@@H]2C5)c1ccccc1 [Compound 13, 17-cyclopropylmethyl-4,5α-epoxy-3-hydroxy-14β-N-(benzamido)morphinan-6-one] | 4.34 ± 0.7 nM | 0.12 ± 0.001 nM | 57.3 ± 4.3 nM | –
13 | O=C(N[C@@]12CCC(=O)[C@@H]3Oc4c(O)ccc5c4[C@@]31CCN(CC1CC1)[C@@H]2C5)c1cc2ccccc2cn1 [Compound 14, 17-cyclopropylmethyl-4,5α-epoxy-3-hydroxy-14β-N-[(3’-isoquinolyl)carboxamido]-morphinan-6-one] | 3.5 ± 1.87 nM | 0.27 ± 0.02 nM | 25.1 ± 1.8 nM | Wet dog shakes at 30 mg/kg (morphine dependent mice): resembled the effect of 1 mg/kg naloxone and naltrexone; Escape jumps, effect of dose (morphine dependent mice): no significant dose-response effect; Wet dog shakes, effect of dose (morphine dependent mice): dose-response increasing effect; Precipitated withdrawal symptoms, overall comparison (morphine dependent mice; morphine-pelleted mice): behaved similarly to naltrexone; EC50 [4]: 2.75 ± 0.71 nM; EC50 [5]: 14.2 ± 1.9 nM; Agonist effect in tail flick assay (antinociception): None of the compounds produced any significant agonist effect
14 | O=C(N[C@@]12CCC(=O)[C@@H]3Oc4c(O)ccc5c4[C@@]31CCN(CC1CC1)[C@@H]2C5)c1ccc2ccccc2n1 [Compound 15, 17-cyclopropylmethyl-4,5α-epoxy-3-hydroxy-14β-N-[(2’-quinolyl)carboxamido]morphinan-6-one] | 9.09 ± 4.94 nM | 0.26 ± 0.01 nM | 15.1 ± 0.6 nM | –
15 | O=C(N[C@@]12CCC(=O)[C@@H]3Oc4c(O)ccc5c4[C@@]31CCN(CC1CC1)[C@@H]2C5)c1cnc2ccccc2c1 [Compound 16, 17-cyclopropylmethyl-4,5α-epoxy-3-hydroxy-14β-N-[(3’-quinolyl)carboxamido]morphinan-6-one] | 1.13 ± 0.25 nM | 0.13 ± 0.02 nM | 1.48 ± 0.05 nM | –
16 | O=C(N[C@@]12CCC(=O)[C@@H]3Oc4c(O)ccc5c4[C@@]31CCN(CC1CC1)[C@@H]2C5)c1ccc2ccccc2c1 [Compound 17] | 6.22 ± 4.01 nM | 0.33 ± 0.02 nM | 10.5 ± 1.4 nM | –
17 | O=C(Cc1ccccn1)N[C@@]12CCC(=O)[C@@H]3Oc4c(O)ccc5c4[C@@]31CCN(CC1CC1)[C@@H]2C5 [Compound 18, 17-cyclopropylmethyl-4,5α-epoxy-3-hydroxy-14β-N-[2’-(pyridin-2”-yl)acetamido]morphinan-6-one] | 0.29 ± 0.04 nM | 0.19 ± 0.03 nM | 3.92 ± 0.12 nM | MOR agonism / efficacy in [35S]-GTPγS binding assay (in words) (mu opioid receptor (MOR) [6]): MOR partial agonist with relatively high efficacy
18 | O=C(CCc1ccccn1)N[C@@]12CCC(=O)[C@@H]3Oc4c(O)ccc5c4[C@@]31CCN(CC1CC1)[C@@H]2C5 [Compound 19, 17-cyclopropylmethyl-4,5α-epoxy-3-hydroxy-14β-N-[3’-(pyridin-2”-yl)propanamido]morphinan-6-one] | 0.32 ± 0.04 nM | 0.17 ± 0.02 nM | 9.1 ± 0.5 nM | MOR agonism / efficacy in [35S]-GTPγS binding assay (in words) (mu opioid receptor (MOR) [6]): low efficacy MOR partial agonists
19 | O=C(CNC(=O)c1ccccn1)N[C@@]12CCC(=O)[C@@H]3Oc4c(O)ccc5c4[C@@]31CCN(CC1CC1)[C@@H]2C5 [Compound 20, 17-cyclopropylmethyl-4,5α-epoxy-3-hydroxy-14β-N-{2’-[(pyridin-2”-yl)carboxamido]acetamido}morphinan-6-one] | 0.3 ± 0.01 nM | 0.14 ± 0.01 nM | 0.37 ± 0.04 nM | MOR agonism / efficacy in [35S]-GTPγS binding assay (in words) (mu opioid receptor (MOR) [6]): low efficacy MOR partial agonists
20 | Oc1cccc2c1O[C@H]1CCC[C@H]3CN(CC4CC4)CC[C@@]231 [LTC-274, (-)-3-cyclopropylmethyl-2,3,4,4α,5,6,7,7α-octahydro-1H-benzofuro[3,2-e]isoquinolin-9-ol] | – | – | – | Emax (KOR partial agonist) (KOR): 23%
21 | O=C1CC[C@@]2(O)[C@H]3Cc4ccc(O)c5c4[C@@]2(CCN3CC2CC2)[C@H]1O5 [NTX, naltrexone, reference compound] | – | – | – | Escape jumps (morphine dependent mice; [7]): over twenty times; Wet dog shakes (morphine dependent mice; [7]): above seven times
